Experimental data as given in DBAASP.
Converted amounts (≈) assume the structure as drawn. “And” between values parts separate entries of the source, which are not always exact repeats. Identical values can stand only once. Values belong to the compound of their own block, whether it stands above or below them.

Key:
Test in all cases: ≥ marks a high value that may be exact or a test limit, other limits are often not marked, values filed in µg/mL are converted to µM
[1] = tested on: Candida albicans
[2] = tested on: Staphylococcus aureus MR
[3] = tested on: Pseudomonas aeruginosa ATCC 27853
[4] = tested on: Staphylococcus aureus ATCC 49476
[5] = tested on: Escherichia coli
[6] = tested on: Pasteurella multocida
[7] = tested on: Staphylococcus epidermidis
[8] = tested on: Micrococcus luteus
[9] = tested on: Staphylococcus aureus
[10] = tested on: Streptococcus uberis
[11] = tested on: Leuconostoc lactis
[12] = tested on: Listeria innocua
[13] = tested on: Bacillus cereus
[14] = tested on: Fusarium verticillioides KCTC 6149
[15] = tested on: Candida tropicalis KCTC 7221
[16] = tested on: Candida krusei CCARM 14017
[17] = tested on: Fusarium oxysporum KCTC 16909
[18] = tested on: Trichosporon beigelii KCTC 7707
[19] = tested on: Candida parapsilosis CCARM 14016
[20] = tested on: Escherichia coli DH10B
[21] = tested on: Saccharomyces cerevisiae BY4741
[22] = tested on: Acinetobacter baumannii ATCC 7978
[23] = tested on: Staphylococcus aureus ATCC 29231
[24] = tested on: Staphylococcus aureus MW2
[25] = tested on: Enterococcus faecium E007
[26] = tested on: Staphylococcus aureus ATCC 43300
[27] = tested on: Listeria ivanovii ATCC 19119
[28] = tested on: Salmonella enterica subsp. enterica serovar Pullorum CVCC 1809
[29] = tested on: Escherichia coli CVCC 195
[30] = tested on: Streptococcus suis CVCC 606
[31] = tested on: Salmonella enterica subsp. enterica serovar Typhimurium ATCC 14028
[32] = tested on: Candida albicans CGMCC 2.2411
[33] = tested on: Enterococcus faecalis CVCC 3936
[34] = tested on: Salmonella enterica subsp. enterica serovar Pullorum CVCC 533
[35] = tested on: Escherichia coli CVCC 1515
[36] = tested on: Pseudomonas aeruginosa CICC 10419
[37] = tested on: Bacillus subtilis ATCC 6633

MIC [1]: 22.4 µM (≈ 64 µg/mL)
MIC [2]: ≥ 179 µM
MIC [3]: 89.4 µM (≈ 256 µg/mL)
MIC [4]: ≥ 44.7 µM
SMILES: CC[C@H](C)[C@H](NC(=O)[C@H](C)NC(=O)[C@H](CCCCN)NC(=O)CNC(=O)[C@H](C)NC(=O)[C@H](CO)NC(=O)[C@H](Cc1ccccc1)NC(=O)[C@H](CC(C)C)NC(=O)CNC(=O)CNC(=O)[C@@H](NC(=O)[C@@H](NC(=O)[C@H](Cc1cnc[nH]1)NC(=O)[C@H](Cc1cnc[nH]1)NC(=O)[C@H](C)NC(=O)[C@H](C)N)[C@@H](C)CC)[C@@H](C)CC)C(=O)N[C@@H](Cc1cnc[nH]1)C(=O)N[C@@H](CCCN=C(N)N)C(=O)N[C@@H](CC(C)C)C(=O)N[C@H](C(=O)N[C@@H](CCCN=C(N)N)C(=O)N[C@@H](CCCN=C(N)N)C(=O)N[C@@H](CCCN=C(N)N)C(=O)N[C@@H](CCCN=C(N)N)C(=O)N[C@@H](CCCN=C(N)N)C(=O)O)[C@@H](C)CC [AAHHIIGGLFSAGKAIHRLIRRRRR]

MIC [5]: > 40.8 µM
MIC [6]: ≥ 40.8 µM
MIC [7]: ≥ 40.8 µM
MIC [8]: ≥ 40.8 µM
MIC [9]: > 40.8 µM
MIC [10]: 20.4 µM (≈ 50 µg/mL)
MIC [11]: ≥ 40.8 µM
MIC [12]: ≥ 40.8 µM
MIC [13]: ≥ 40.8 µM
SMILES: CC[C@H](C)[C@H](NC(=O)[C@H](CO)NC(=O)[C@H](CO)NC(=O)[C@H](CCSC)NC(=O)[C@H](CC(C)C)NC(=O)CN)C(=O)NCC(=O)N[C@@H](CCCCN)C(=O)N[C@@H](C)C(=O)N[C@@H](CC(C)C)C(=O)NCC(=O)NCC(=O)N[C@@H](CC(C)C)C(=O)N[C@H](C(=O)N[C@H](C(=O)N[C@@H](CC(=O)O)C(=O)N[C@H](C(=O)N[C@@H](CC(C)C)C(=O)N[C@@H](CCCCN)C(=O)N1CCC[C@H]1C(=O)N[C@@H](CCCCN)C(=O)N[C@H](C(=O)N1CCC[C@H]1C(=O)N[C@@H](C)C(=O)N[C@@H](CO)C(=O)O)[C@@H](C)O)C(C)C)C(C)C)[C@@H](C)CC [GLMSSIGKALGGLIVDVLKPKTPAS]

MIC [14]: ≥ 48 µM
MIC [15]: 4 µM and 2 µM
MIC [16]: 8 µM (≈ 20.8 µg/mL)
MIC [17]: 4 µM and 12 µM
MIC [18]: 2 µM (≈ 5.2 µg/mL)
MIC [19]: ≥ 64 µM
SMILES: CC[C@H](C)[C@H](NC(=O)[C@H](C)NC(=O)[C@H](CCC(=O)O)NC(=O)[C@H](Cc1cnc[nH]1)NC(=O)[C@H](C)NC(=O)CNC(=O)[C@H](CCC(N)=O)NC(=O)[C@H](Cc1ccccc1)NC(=O)[C@@H](NC(=O)[C@H](CCCCN)NC(=O)[C@H](CCCCN)NC(=O)[C@H](C)NC(=O)[C@H](C)NC(=O)[C@H](CC(N)=O)NC(=O)[C@H](CC(C)C)NC(=O)CN)C(C)C)C(=O)N[C@@H](CCCCN)C(=O)N[C@@H](CC(C)C)C(=O)N[C@H](C(=O)N[C@@H](CC(N)=O)C(=O)N[C@@H](CC(N)=O)C(=O)N[C@@H](Cc1cnc[nH]1)C(=O)N[C@H](C(=O)N[C@@H](CCC(N)=O)C(N)=O)C(C)C)[C@@H](C)CC [GLNAAKKVFQGAHEAIKLINNHVQ]

MIC [20]: 20 µM (≈ 49.8 µg/mL)
MIC [21]: 10 µM (≈ 24.9 µg/mL)
SMILES: CSCC[C@H](NC(=O)[C@@H]1CCCN1C(=O)[C@H](CCC(N)=O)NC(=O)CNC(=O)[C@@H]1CCCN1C(=O)[C@H](CCCCN)NC(=O)[C@H](CC(C)C)NC(=O)[C@H](CCC(N)=O)NC(=O)[C@H](CC(C)C)NC(=O)[C@H](Cc1c[nH]c2ccccc12)NC(=O)[C@H](Cc1cnc[nH]1)NC(=O)[C@H](Cc1c[nH]c2ccccc12)NC(=O)[C@H](Cc1ccccc1)NC(=O)[C@H](CCCN=C(N)N)NC(=O)[C@H](CC(N)=O)NC(=O)[C@H](CC(C)C)NC(=O)[C@H](Cc1ccccc1)NC(=O)[C@@H](N)CCCCN)C(=O)N[C@@H](Cc1ccc(O)cc1)C(=O)O [KFLNRFWHWLQLKPGQPMY]

SMILES: CC[C@H](C)[C@H](NC(=O)[C@H](CCCCN)NC(=O)[C@H](CCCCN)NC(=O)[C@@H](N)CC(C)C)C(=O)NCC(=O)N[C@@H](CCCCN)C(=O)N[C@@H](CCCCN)C(=O)N[C@H](C(=O)N[C@@H](Cc1c[nH]c2ccccc12)C(=O)N[C@@H](CCCN=C(N)N)C(=O)N[C@H](C(=O)NCC(=O)N[C@@H](Cc1c[nH]c2ccccc12)C(=O)N[C@@H](CC(N)=O)C(=O)N[C@H](C(=O)N[C@@H](CCCN=C(N)N)C(=O)O)[C@@H](C)O)C(C)C)[C@@H](C)CC [LKKIGKKIWRVGWNTR]
MIC [22]: ≥ 64.5 µM
MIC [23]: ≥ 64.5 µM
MIC [24]: ≥ 64.5 µM
MIC [25]: ≥ 64.5 µM

MIC [26]: > 25.8 µM
MIC [27]: 25.8 µM (≈ 63.9 µg/mL)
MIC [28]: 25.8 µM (≈ 63.9 µg/mL)
MIC [29]: 25.8 µM (≈ 63.9 µg/mL)
MIC [30]: 25.8 µM (≈ 63.9 µg/mL)
MIC [31]: > 25.8 µM
MIC [32]: 25.8 µM (≈ 63.9 µg/mL)
MIC [33]: 25.8 µM (≈ 63.9 µg/mL)
MIC [34]: 25.8 µM (≈ 63.9 µg/mL)
MIC [35]: 25.8 µM (≈ 63.9 µg/mL)
MIC [36]: 25.8 µM (≈ 63.9 µg/mL)
MIC [37]: 25.8 µM (≈ 63.9 µg/mL)
SMILES: CC(C)[C@H](N)C(=O)N[C@H]1CSSC[C@@H](C(=O)N[C@@H](Cc2cnc[nH]2)C(=O)N[C@@H](CCCN=C(N)N)C(=O)N[C@@H](CCCN=C(N)N)C(=O)N[C@@H](C)C(=O)N[C@@H](CC(N)=O)C(=O)N[C@@H](CC(N)=O)C(=O)NCC(=O)N[C@H](C(=O)N[C@@H](CCCN=C(N)N)C(=O)N[C@H](C(=O)O)C(C)C)C(C)C)NC(=O)[C@H](CC(N)=O)NC(=O)[C@H](Cc2c[nH]c3ccccc23)NC(=O)[C@H](C)NC(=O)[C@H](Cc2ccccc2)NC(=O)CNC(=O)[C@H](CCCN=C(N)N)NC(=O)[C@H](Cc2ccc(O)cc2)NC(=O)[C@H](C(C)C)NC1=O [VCVYRGFAWNCHRRANNGVRV]
